Results: patent US20250230193A1, “CYCLIC COMPOUND HAVING SELECTIVE KRAS INHIBITORY EFFECT ON HRAS AND NRAS” (CHUGAI SEIYAKU KABUSHIKI KAISHA, priority 2022, published 2025)
*1 amine or outer side, *2 acyl side, *3 side chain or, on linkers, in order; H or OH if unused. Where a SMILES comes first, the peptide text is derived from it. Bridges are numbered along the chain shown (N, C = ends). [ ]: non-standard residue; d: D form. The star is where a group is joined. hPhe(3-Cl-4-CF3) = N[C@@H](CCc1ccc(C(F)(F)F)c(Cl)c1)C(=O)O; NPrPhe(4-CF3) = CCCN[C@@H](Cc1ccc(C(F)(F)F)cc1)C(=O)O; NEtAsp = CCN([C@@H](CC(=O)[*:3])C(=O)[*:2])[*:1]; NMeGly(cPent) = CN[C@H](C(=O)O)C1CCCC1; NEtLeu = CCN[C@@H](CC(C)C)C(=O)O; NMeD = CN[C@@H](CC(=O)O)C(=O)O; NMeL = CN[C@@H](CC(C)C)C(=O)O; Morpholide = C1CN(*)CCO1; Ac4c = NC1(C(=O)O)CCC1; Sar = CNCC(=O)O

What was measured:
[1] = molecular target: GDP-bound NRAS wild-type protein (Homo sapiens, UniProt P01111); assay: Binding to NRAS by surface plasmon resonance (SPR), Single Cycle Kinetics; conditions: for NRAS/KRAS (ratio of KD value with respect to NRAS to KD value with respect to KRAS) / NRAS/KRAS (ratio of KD value for NRAS to KD value for KRAS): GDP-bound NRAS wild-type vs GDP-bound KRAS wild-type
[2] = molecular target: GDP-bound HRAS wild-type protein (Homo sapiens, UniProt P01112); assay: Binding to HRAS by surface plasmon resonance (SPR), Single Cycle Kinetics; conditions: for HRAS/KRAS (ratio of KD value with respect to HRAS to KD value with respect to KRAS) / HRAS/KRAS (ratio of KD value for HRAS to KD value for KRAS): GDP-bound HRAS wild-type vs GDP-bound KRAS wild-type
[3] = SPR, GDP-bound wild-type proteins

Chain of GDP-bound NRAS wild-type protein (P01111 whole entry): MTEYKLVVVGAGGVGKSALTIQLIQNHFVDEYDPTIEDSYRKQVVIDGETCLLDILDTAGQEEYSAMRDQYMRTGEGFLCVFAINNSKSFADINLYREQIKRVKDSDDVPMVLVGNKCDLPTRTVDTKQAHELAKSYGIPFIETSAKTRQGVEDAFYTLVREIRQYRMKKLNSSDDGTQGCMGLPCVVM
Chain of GDP-bound HRAS wild-type protein (P01112 whole entry): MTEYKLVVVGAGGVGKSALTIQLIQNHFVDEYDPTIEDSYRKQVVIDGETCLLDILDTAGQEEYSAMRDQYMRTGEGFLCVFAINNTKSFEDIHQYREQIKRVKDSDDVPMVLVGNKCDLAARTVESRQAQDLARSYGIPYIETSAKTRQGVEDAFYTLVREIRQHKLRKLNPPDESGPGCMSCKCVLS

## CCO[C@@H]1C[C@H]2C(=O)NC3(CCC3)C(=O)N(C)[C@@H](C(C)(C)C)C(=O)N(C)[C@H](C(=O)N3CCOCC3)CC(=O)N(C)[C@@H](CC(C)C)C(=O)N[C@@H]([C@@H](C)CC)C(=O)N(C)CC(=O)N(C)[C@H]3CCCCN(C3=O)[C@@H](Cc3ccc(C(F)(F)F)cc3)C(=O)N(C)CC(=O)N[C@@H](CCc3cc(F)c(C(F)(F)F)c(F)c3)C(=O)N2C1 [PP0814]
[1]; KD ratio, SPR
  NRAS/KRAS (ratio of KD value with respect to NRAS to KD value with respect to KRAS): B (a compound having 3 or more and less than 10 is denoted as B)
[2]; KD ratio, SPR
  HRAS/KRAS (ratio of KD value with respect to HRAS to KD value with respect to KRAS): B (a compound having 3 or more and less than 10 is denoted as B)

## CCCN1C(=O)CN(C)C(=O)CN(C)C(=O)[C@H]([C@@H](C)CC)NC(=O)[C@H](CC(C)C)N(C)C(=O)C[C@@H](C(=O)N(C)C)N(CC)C(=O)[C@H](C2CCCC2)N(C)C(=O)C2(CCC2)NC(=O)[C@@H]2CCCN2C(=O)[C@H](CCc2ccc(C(F)(F)F)c(Cl)c2)NC(=O)CN(C)C(=O)[C@@H]1Cc1ccc(C(F)(F)F)cc1 [PP1956] ([NMeL]I[Sar][Sar][NPrPhe(4-CF3)][Sar][hPhe(3-Cl-4-CF3)]P[Ac4c][NMeGly(cPent)][NEtAsp]-NMe2; lactam N-11)
[1]; KD ratio, SPR
  NRAS/KRAS (ratio of KD value for NRAS to KD value for KRAS): B (a compound having 3 or more and less than 10 is denoted as B)
[2]; KD ratio, SPR
  HRAS/KRAS (ratio of KD value for HRAS to KD value for KRAS): B (a compound having 3 or more and less than 10 is denoted as B)

## CCC[C@H]1C(=O)N[C@@H](C2CCCC2)C(=O)N(C)CC(=O)N(C)[C@H]2C/C=C\CCN(C2=O)[C@@H](Cc2ccc(C(F)(F)F)cc2)C(=O)N(C)CC(=O)N[C@@H](CCc2ccc(C(F)(F)F)c(Cl)c2)C(=O)N2C[C@H](OCC)C[C@H]2C(=O)NC2(CC(C)(C)C2)C(=O)N(C)[C@@H](C2CCCC2)C(=O)N(C)[C@H](C(=O)N(C)C)CC(=O)N1C [PP2984]
[1]; [3]
  NRAS/KRAS (ratio of KD value with respect to GDP-bound NRAS wild-type protein to KD value with respect to KRAS): A (a compound having 10 or more and less than 20 is denoted as A)
[2]; [3]
  HRAS/KRAS (ratio of KD value with respect to GDP-bound HRAS wild-type protein to KD value with respect to KRAS): B (a compound having 3 or more and less than 10 is denoted as B)

## CCC[C@H]1C(=O)N[C@@H](CC(C)C)C(=O)N2C[C@@H](OC)C[C@H]2C(=O)N(C)[C@H]2C/C=C\CCN(C2=O)[C@@H](Cc2ccc(C)cc2)C(=O)N(C)CC(=O)N[C@@H](CCc2cc(F)c(C(F)(F)F)c(F)c2)C(=O)N2C[C@H](OCC)C[C@H]2C(=O)NC2(CC(C)(C)C2)C(=O)N(C)[C@@H](C2CCCC2)C(=O)N(C)[C@H](C(=O)N(C)C)CC(=O)N1C [PP2553]
[1]; class symbols
  NRAS/KRAS (ratio of KD value with respect to GDP-bound NRAS wild-type protein to KD value with respect to KRAS): A (a compound having 10 or more and less than 20 is denoted as A)
[2]; class symbols
  HRAS/KRAS (ratio of KD value with respect to GDP-bound HRAS wild-type protein to KD value with respect to KRAS): B (a compound having 3 or more and less than 10 is denoted as B)

## CC[C@H](C)[C@@H]1NC(=O)[C@H](CC(C)C)N(C)C(=O)C[C@@H](C(=O)N(C)C)N(C)C(=O)[C@H](C2CCCC2)N(C)C(=O)C2(CCCC2)NC(=O)[C@@H]2CCCN2C(=O)[C@H](CCc2cc(F)c(C(F)(F)F)c(F)c2)NC(=O)CN(C)C(=O)[C@H](Cc2ccc(C(F)(F)F)cc2)N2CCCC[C@@H](C2=O)N(C)C(=O)CN(C)C1=O [PP0569]
[1]; SPR
  NRAS/KRAS (ratio of KD value with respect to GDP-bound NRAS wild-type protein to KD value with respect to KRAS): C (A compound having a KD ratio of 0.1 or more and less than 3 is denoted as C)
[2]; SPR
  HRAS/KRAS (ratio of KD value with respect to GDP-bound HRAS wild-type protein to KD value with respect to KRAS): B (a compound having 3 or more and less than 10 is denoted as B)

## CCO[C@@H]1C[C@H]2C(=O)NC3(CCC3)C(=O)N(C)[C@@H](CC(F)F)C(=O)N(C)[C@H](C(=O)N3CCOCC3)CC(=O)N(C)[C@@H](CC(C)C)C(=O)N[C@@H]([C@@H](C)CC)C(=O)N(C)CC(=O)N(C)[C@H]3CCCCCN(C3=O)[C@@H](Cc3ccc(C(F)(F)F)cc3)C(=O)N(C)CC(=O)N[C@@H](CCc3cc(F)c(C(F)(F)F)c(F)c3)C(=O)N2C1 [PP0822]
[1]; KD ratio, SPR
  NRAS/KRAS (ratio of KD value with respect to NRAS to KD value with respect to KRAS): B (a compound having 3 or more and less than 10 is denoted as B)
[2]; KD ratio, SPR
  HRAS/KRAS (ratio of KD value with respect to HRAS to KD value with respect to KRAS): B (a compound having 3 or more and less than 10 is denoted as B)

## CCCN1C(=O)CN(C)C(=O)CN(C)C(=O)[C@H]([C@@H](C)CC)NC(=O)[C@H](CC(C)C)N(CC)C(=O)C[C@@H](C(=O)N2CCOCC2)N(C)C(=O)[C@H](C2CCCC2)N(C)C(=O)C2(CCC2)NC(=O)[C@@H]2CCCN2C(=O)[C@H](CCc2ccc(C(F)(F)F)c(Cl)c2)NC(=O)CN(C)C(=O)[C@@H]1Cc1ccc(C(F)(F)F)cc1 [PP1946] ([NEtLeu]I[Sar][Sar][NPrPhe(4-CF3)][Sar][hPhe(3-Cl-4-CF3)]P[Ac4c][NMeGly(cPent)][NMeD]-Morpholide; lactam N-11)
[1]; KD ratio, SPR
  NRAS/KRAS (ratio of KD value for NRAS to KD value for KRAS): B (a compound having 3 or more and less than 10 is denoted as B)
[2]; KD ratio, SPR
  HRAS/KRAS (ratio of KD value for HRAS to KD value for KRAS): C (A compound having a KD ratio of 0.1 or more and less than 3 is denoted as C)

## CCOC[C@H]1C(=O)N[C@@H]([C@@H](C)OCC)C(=O)N2CCC[C@H]2C(=O)N(C)[C@H]2C/C=C\CCN(C2=O)[C@@H](Cc2ccc(C)cc2)C(=O)N(C)CC(=O)N[C@@H](CCc2ccc(C(F)(F)F)c(OC)c2)C(=O)N2C[C@@H](C)C[C@H]2C(=O)NC2(CC(C)(C)C2)C(=O)N(C)[C@@H](C2CCCC2)C(=O)N(C)[C@H](C(=O)N(C)CC)CC(=O)N1C [PP2433]
[1]; SPR
  NRAS/KRAS (ratio of KD value with respect to NRAS to KD value with respect to KRAS): AA (a compound having 20 or more is denoted as AA)
[2]; SPR
  HRAS/KRAS (ratio of KD value with respect to HRAS to KD value with respect to KRAS): A (a compound having 10 or more and less than 20 is denoted as A)
